Source: patent USRE47193E1, “Selectively substituted quinoline compounds” (EISAI R&D MANAGEMENT CO., LTD., priority 2013, dated 2019)
Values joined by “and” are separate entries in the source; they are usually repeats but may differ in a detail not shown here. Equal values may be shown once. Read-outs that look alike come from different tables or passages of the source.

Target: T1, TLR9 (Homo sapiens, UniProt Q9NR96)
T1 sequence (Q9NR96 26-1032): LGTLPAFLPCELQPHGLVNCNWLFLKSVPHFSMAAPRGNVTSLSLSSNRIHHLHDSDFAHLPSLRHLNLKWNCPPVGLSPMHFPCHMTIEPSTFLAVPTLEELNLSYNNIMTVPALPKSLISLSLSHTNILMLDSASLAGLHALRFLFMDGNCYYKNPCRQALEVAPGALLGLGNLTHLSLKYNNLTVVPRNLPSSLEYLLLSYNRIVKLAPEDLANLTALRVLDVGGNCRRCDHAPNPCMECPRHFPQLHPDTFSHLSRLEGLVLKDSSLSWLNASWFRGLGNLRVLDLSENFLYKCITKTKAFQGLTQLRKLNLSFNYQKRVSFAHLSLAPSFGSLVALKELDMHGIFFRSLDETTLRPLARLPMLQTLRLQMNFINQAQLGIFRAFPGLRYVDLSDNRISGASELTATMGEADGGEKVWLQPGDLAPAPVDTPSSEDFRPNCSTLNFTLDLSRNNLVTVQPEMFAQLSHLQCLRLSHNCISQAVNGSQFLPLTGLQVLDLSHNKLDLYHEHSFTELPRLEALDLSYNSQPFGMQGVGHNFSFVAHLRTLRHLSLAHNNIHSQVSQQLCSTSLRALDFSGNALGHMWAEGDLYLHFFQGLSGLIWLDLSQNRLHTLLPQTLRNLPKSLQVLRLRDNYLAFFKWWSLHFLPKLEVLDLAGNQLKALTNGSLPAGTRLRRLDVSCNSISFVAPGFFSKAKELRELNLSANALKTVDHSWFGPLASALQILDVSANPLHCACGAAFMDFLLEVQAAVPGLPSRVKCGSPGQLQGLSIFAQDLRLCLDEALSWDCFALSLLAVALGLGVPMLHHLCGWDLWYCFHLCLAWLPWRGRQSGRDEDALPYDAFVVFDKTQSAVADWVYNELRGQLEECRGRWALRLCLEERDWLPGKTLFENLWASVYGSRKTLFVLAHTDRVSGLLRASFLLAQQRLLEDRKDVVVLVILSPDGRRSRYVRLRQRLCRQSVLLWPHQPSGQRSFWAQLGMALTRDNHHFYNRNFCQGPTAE
Experiment: Subsequent human PBMC assay, DNA-mediated activation of TLR9, IL-6 and IFN-α
Type: cell-based
Procedure: Human PBMC Cell-Based Assay. Human peripheral blood mononuclear cells (PBMC) were isolated from freshly-drawn heparinized (10 USP units/ml, Hospira, Lakeforest, Ill.) healthy donor whole blood by density gradient (Histopaque® 1077, Sigma, Inc., St. Louis, Mo.). Briefly, 25 ml blood was diluted with 15 ml PBS (without Ca^2+, Mg^2+) in a 50 ml conical tube, and 12 ml Histopaque was underlaid using a spinal needle. Tubes were centrifuged for 45 minutes at 1200 rpm (350×g), and PBMC were collected from the buffy coat. Cells were then washed twice in PBS, and red blood cells were lysed by suspension in 5 ml ammonium chloride solution (1× Red Blood Cell Lysis Buffer, eBioscience) for 5 minutes at room temperature. After a final wash in PBS, PBMC were resuspended at a final concentration of 2×10^6/ml in RPMI-1640 media with L-glutamine (Invitrogen) and supplemented with 25 mM HEPES (Mediatech, Inc, Manassas Va.), 10% fetal bovine serum (HyClone, Logan, Utah), and Penicillin-Streptomycin-Glutamine (Mediatech) and plated at 100 ul/well (2×10^5 cells/well) in tissue culture treated 96-well plates (Falcon).
Antagonist compounds solubilized and serial diluted in 100% DMSO were added in triplicate to cells to yield a final concentration of 0.1% DMSO (v/v). Hydroxychloroquine (Acros Organics) solubilized and serial diluted in PBS was added in triplicate to cells. PBMC were incubated with antagonist compounds or HCQ for 30 minutes at 37° C., 5% CO2 before adding various TLR agonist reagents in 100 ul complete media per well as follows (final concentrations indicated): R848 (Resiquimod; GLSynthesis, Worcester, Mass.) at 1 uM for TLR7 and TLR8, LPS (Sigma) at 10 ng/ml for TLR4, and CpG-2216 (InvivoGen) at 5 ug/ml for TLR9. To prepare a TLR7/8 agonist that mimics RNA-containing auto-antibody immune complexes in lupus patients, a 26-mer RNA with a sequence derived from human U1 snRNA stem loop IV [(sequence: […]-[…] (SEQ ID NO: 2) with phosphorothioate backbone] was synthesized (Dharmacon, Inc., Lafayette, Colo.), which has been shown previously to be a potent TLR7 and TLR8 agonist. This RNA molecule was diluted to 2.5 μM in serum-free RPMI, and mouse anti-human single stranded DNA monoclonal antibody (MAB3034, Millipore, Inc., Billerica, Mass.), which also cross-reacts with RNA, was added at a 1:25 dilution or at 1 ug/ml. The resulting “RNA-Ig” stimulus was incubated at room temperature for 15-30 minutes before adding to cells. PBMC were incubated with the various TLR agonists for 20 hours at 37° C., 5% CO2. Cell culture supernatants were collected, and levels of various human cytokines were assessed as indicated by standard ELISA procedure according to the manufacturer's recommended protocol (BD Biosciences, Inc., San Diego, Calif.). In a subsequent assay (Table 6) the ability of ER-899742 to block stimulation of normal PBMC by various TLR7/8 ligands, but not DNA-mediated activation of TLR9, was examined. In this assay cells were plated at 1×10^5 cells/well in 100 ul in 96-well plates.

In the case of `C[C@@H]1CN(c2ccc(C#N)c3ncccc23)C[C@H](C(=O)N[C@H]2CNC[C@H]2F)O1.Cl` [ER-899742, (2R,6R)-4-(8-cyanoquinolin-5-yl)-N-[(3S,4R)-4-fluoropyrrolidin-3-yl]-6-methylmorpholine-2-carboxamide hydrochloride], the IC50 (IC50 IFN-α Ave., human PBMC, ligand ODN2006-DOTAP, average of donors) is reported as greater than 10000 nM, the IC50 (IC50 IFN-α Ave., human PBMC, ligand ODN2216-Ig, average of donors) is reported as greater than 10000 nM and the IC50 (IC50 IFN-α, human PBMC, ligand ODN2006-DOTAP, individual donors) is reported as greater than 10000 nM. The IC50 (IC50 IFN-α, human PBMC, ligand ODN2216-Ig, individual donors) was greater than 10000 nM, the IC50 (IC50 IL-6, human PBMC, ligand ODN2006-DOTAP, individual donors) was greater than 10000 nM and the IC50 (IC50 IL-6, human PBMC, ligand ODN2216-Ig, individual donors) was greater than 10000 nM. The IC50 (IC50 IL-6 Ave., human PBMC, ligand ODN2006-DOTAP, average of donors) was greater than 10000 nM and the IC50 (IC50 IL-6 Ave., human PBMC, ligand ODN2216-Ig, average of donors) was greater than 10000 nM.
In the case of `CCN(CCO)CCCC(C)Nc1ccnc2cc(Cl)ccc12` (stereo not drawn) [HCQ, hydroxychloroquine, reference compound], the IC50 (human PBMC, ligand ODN2006-DOTAP, average of donors, read-out: IC50 IFN-α Ave.) is reported as 3020 nM, the IC50 (human PBMC, ligand ODN2006-DOTAP, average of donors, read-out: IC50 IL-6 Ave.) is reported as 1720 nM and the IC50 (human PBMC, ligand ODN2006-DOTAP, individual donors, read-out: IC50 IFN-α) is reported as 910 nM and 4100 nM and 3100 nM and 3960 nM. The IC50 (human PBMC, ligand ODN2006-DOTAP, individual donors, read-out: IC50 IL-6) was 1200 nM and 1240 nM and 1540 nM and 2400 nM and 1580 nM and 2370 nM, the IC50 (human PBMC, ligand ODN2216-Ig, average of donors, read-out: IC50 IFN-α Ave.) was 290 nM and the IC50 (human PBMC, ligand ODN2216-Ig, average of donors, read-out: IC50 IL-6 Ave.) was 2380 nM. For the same compound, the IC50 (human PBMC, ligand ODN2216-Ig, individual donors, read-out: IC50 IFN-α) was 280 nM and 290 nM.
